# Reference: US8278465B2, “Coumarin derivative having antitumor activity” (Chugai Seiyaku Kabushiki Kaisha, priority 2006, dated 2012)
# Like-named read-outs stand apart in the source and are kept apart here.
# Tests used:
# [1] = test system: human colon cancer cell line HCT116; assay: Measurement of cell proliferation inhibitory activity (Cell Counting Kit-8); format: cell-based; settings: Homo sapiens, HCT-116, 96 h, HCT116, 4 days incubation, read-out: IC50 (50% proliferation inhibitory concentration)
# Method: The cell proliferation inhibitory activities of the compounds and salts shown in Tables 1-1, 1-2 and Table 2 were measured as follows, using the human colon cancer cell line HCT116 (American Type Culture Collection, VA, USA). 2000 to 3000 cells per well of the human colon cancer cell line HCT116 was placed in a 96-well culture plate, a predetermined concentration (0.00038 μM, 0.00076 μM, 0.0015 μM, 0.0031 μM, 0.0061 μM, 0.012 μM, 0.024 μM, 0.049 μM, 0.098 μM, 0.195 μM, 0.39 μM, 0.78 μM, 1.56 μM, 3.13 μM, 6.25 μM, 12.5 μM, 25 μM or 50 μM) of the test substance was added thereto, and the mixture was then incubated at 37° C. under 5% CO2 environment for 4 days. On day 4 of incubation, the Cell Counting Kit-8 solution (Dojindo Laboratories) was added, the absorbance (measurement wavelength: 450 nm; reference wavelength: 615 nm) was measured following the protocol attached to the kit, and the 50% proliferation inhibitory concentration (IC50) was calculated.
# [2] = Calculation of AUC value (plasma concentration after oral administration); format: in vivo; settings: BALB/c (nu/nu), mouse, mice, plasma 15 min to 24 h, trapezoidal method, read-out: AUC (area under the blood concentration-time curve)
# Method: The AUC (area under the blood concentration-time curve) values of the compounds and salts shown in Table 2 (only compound 1j-2-16-2 is Na salt; the others are free form) were calculated by administering the test substance to an animal and measuring its concentration in plasma. As the animals, BALB/c (nu/nu) mice (4 to 6 weeks old) procured from Japan Charles River Laboratories were used after a one-week taming period. As for the test substances other than Comp. 1, 5 mg/mL of the substance solution was given at 0.2 mL/10 g body weight (dose of the test substance: 100 mg/kg body weight). As for Comp. 1, 10 mg/mL of the substance solution was given at 0.2 mL/10 g body weight (dose of the test substance: 200 mg/kg body weight). Administration of the substance solution to a mouse was performed forcibly using an oral feeding tube. Blood was collected from the eye pit 15 minutes, 2 hours, 7 hours and 24 hours after administration of the substance solution, using a hematocrit tube treated with heparin. Paraoxon (final concentration: 1 mM) was added to the collected blood as a stabilizer, the mixture was centrifuged at 10000 rpm for 3 minutes, and plasma was separated. The plasma was stored in a freezer set to −80° C. until the time of measurement. The measurement was carried out as follows. 100 μL of distilled water to which the internal standard substance (a structural homolog, concentration adjusted appropriately depending on the compound used) had been added was added to 5 μL of the plasma, and then, a measurement sample was prepared through solid phase extraction processing using an Oasis HLB μElution Plate (Waters), and was analyzed by LC/MS/MS. The plasma concentration was calculated using a calibration curve prepared based on the ratio of standard substance to internal standard substance in control plasma of mice. The AUC was calculated from the data of plasma concentration of the drug by the trapezoidal method using Microsoft Excel 2003 (Microsoft).
SMILES,IC50 ([1]; Table 2),AUC ([2]; 100 mg/kg body weight),other results
"CCS(=O)(=O)Nc1cccc(Cc2c(C)c3cc(Cl)c(Oc4ncccn4)cc3oc2=O)c1 [Comp. 1, reference compound]",–,–,IC50 ([1]; Table 1-2): 0.16 µM; AUC ([2]; 200 mg/kg body weight (Comp. 1)): 97.6 µM·h
"CNS(=O)(=O)Nc1cccc(Cc2c(C)c3ccc(OC(=O)N(C)C)cc3oc2=O)n1 [Compound 1j-1-13-2, Dimethylcarbamic acid 4-methyl-3-{6-(methylaminosulfonyl)aminopyridin-2-ylmethyl}-2-oxo-2H-1-benzopyran-7-yl ester]",0.271 µM,–,"AUC ([2]; in vivo, 100 mg/kg body weight): 314 µM·h"
"Cc1c(Cc2cccc(NS(N)(=O)=O)c2F)c(=O)oc2cc(Oc3ncccn3)ccc12 [Compound 1j-2-4-1, 3-{2-Fluoro-3-(aminosulfonyl)aminobenzyl}-4-methyl-7-(pyrimidin-2-yloxy)-2-oxo-2H-1-benzopyran]",0.15 µM,811 µM·h,–
"CNS(=O)(=O)Nc1cccc(Cc2c(C)c3ccc(Oc4ncccn4)cc3oc2=O)c1F [Compound 1j-2-4-2, 3-{2-Fluoro-3-(methylaminosulfonyl)aminobenzyl}-4-methyl-7-(pyrimidin-2-yloxy)-2-oxo-2H-1-benzopyran]",0.0447 µM,425 µM·h,–
"CNS(=O)(=O)Nc1cccc(Cc2c(CF)c3ccc(Oc4ncccn4)cc3oc2=O)c1F [Compound 1j-2-4-2F, 3-{2-Fluoro-3-(methylaminosulfonyl)aminobenzyl}-4-fluoromethyl-7-(pyrimidin-2-yloxy)-2-oxo-2H-1-benzopyran]",0.165 µM,317 µM·h,–
"CNS(=O)(=O)Nc1cccc(Cc2c(C)c3cc(F)c(Oc4ncccn4)cc3oc2=O)c1F [Compound 1j-2-5-2, 3-{2-Fluoro-3-(methylaminosulfonyl)aminobenzyl}-4-methyl-7-(pyrimidin-2-yloxy)-6-fluoro-2-oxo-2H-1-benzopyran]",0.0751 µM,344 µM·h,–
"CNC(=O)CS(=O)(=O)Nc1cccc(Cc2c(C)c3cc(Cl)c(OC(=O)N(C)C)cc3oc2=O)c1 [Compound 1o-1-3-2, Dimethylcarbamic acid 3-(3-methylcarbamoylmethanesulfonylamino-benzyl)-6-chloro-4-methyl-2-oxo-2H-1-benzopyran-7-yl ester]",–,–,IC50 ([1]; Table 1-1): 0.021 µM
"Cc1c(Cc2cccc(NS(=O)(=O)CC(=O)N(C)C)c2)c(=O)oc2cc(OC(=O)N(C)C)c(Cl)cc12 [Compound 1o-1-3-3, Dimethylcarbamic acid 3-(3-dimethylcarbamoylmethanesulfonylamino-benzyl)-6-chloro-4-methyl-2-oxo-2H-1-benzopyran-7-yl ester]",–,–,IC50 ([1]; Table 1-1): 0.016 µM

# Second part, led by results:
IC50 ([1]; Table 2),AUC ([2]; 100 mg/kg body weight),SMILES,other results
0.282 µM,252 µM·h,"CNS(=O)(=O)Nc1cc(Cc2c(C)c3cc(Cl)c(Oc4ncccn4)cc3oc2=O)ccn1 [Compound 1j-2-12-2, 3-{2-(Methylaminosulfonyl)aminopyridin-4-ylmethyl}-4-methyl-7-(pyrimidin-2-yloxy)-6-chloro-2-oxo-2H-1-benzopyran]",–
0.0408 µM,3200 µM·h,"CNS(=O)(=O)Nc1nccc(Cc2c(C)c3ccc(Oc4ncccn4)cc3oc2=O)c1F [Compound 1j-2-16-2, 3-{2-(Methylaminosulfonyl)amino-3-fluoropyridin-4-ylmethyl}-4-methyl-7-(pyrimidin-2-yloxy)-2-oxo-2H-1-benzopyran]",–
0.164 µM,199 µM·h,"CNS(=O)(=O)Nc1cccc(Cc2c(C)c3ccc(Oc4nccs4)cc3oc2=O)c1 [Compound 1j-3-1-2, 3-{3-(Methylaminosulfonyl)aminobenzyl}-4-methyl-7-(thiazol-2-yloxy)-2-oxo-2H-1-benzopyran]",–
0.0968 µM,149 µM·h,"CNS(=O)(=O)Nc1cccc(Cc2c(C)c3cc(C)c(Oc4nccs4)cc3oc2=O)c1 [Compound 1j-3-8-2, 3-{3-(Methylaminosulfonyl)aminobenzyl}-4-methyl-7-(thiazol-2-yloxy)-6-methyl-2-oxo-2H-1-benzopyran]",–
0.325 µM,367 µM·h,"CNC(=O)CS(=O)(=O)Nc1cccc(Cc2c(C)c3ccc(Oc4nccs4)cc3oc2=O)c1F [Compound 1o-3-4-2, 2-{2-Fluoro-3-[4-methyl-2-oxo-7-(thiazol-2-yloxy)-2H-1-benzopyran-3-ylmethyl]phenylsulfamoyl}-N-methyl-acetamide]",–
